This passage reports IC50 results from patent publication US9994594B2, “Inhibitors of arginase and their therapeutic applications” (MARS, INCORPORATED, priority 2010, dated 2018).

pIC50: −log10 of the molar value. Structures can show the parent of a compound that is named as a salt. Bounds are passed on as bounds.

For one assay, the target named is T1, human arginase I (ARG I) (Homo sapiens, UniProt P05089).
T1 sequence (P05089 1-322): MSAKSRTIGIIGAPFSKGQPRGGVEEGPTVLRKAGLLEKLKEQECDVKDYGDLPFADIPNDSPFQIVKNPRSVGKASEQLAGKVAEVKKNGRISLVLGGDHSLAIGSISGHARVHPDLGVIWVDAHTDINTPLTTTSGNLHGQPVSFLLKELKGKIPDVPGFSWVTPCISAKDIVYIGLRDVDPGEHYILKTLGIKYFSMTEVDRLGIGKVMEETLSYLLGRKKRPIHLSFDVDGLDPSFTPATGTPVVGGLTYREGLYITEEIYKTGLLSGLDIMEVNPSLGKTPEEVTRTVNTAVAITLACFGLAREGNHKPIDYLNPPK
As to the kind of experiment: Inhibition of arginase I, spectrophotometric urea assay at 530 nm. Particulars: Formula II compounds, Table 2-A; read-out: Potency (ARG I). The class given is biochemical. The procedure: (§1) The assay established the concentration of inhibitor that is required to reduce arginase activity by 50% (IC50).
(§2) Inhibition of arginase I (ARG I) and arginase II (ARG II) by Formula I and Formula II compounds is followed spectrophotometrically at 530 nm. The compound to be tested is dissolved in DMSO at an initial concentration 50-fold greater than its final concentration in the cuvette. 10 μl of the stock solution is diluted in 90 μl of the assay buffer that comprises 0.1M sodium phosphate buffer containing 130 mM NaCl, pH 7.4, to which is added ovalbumin (OVA) at a concentration of 1 mg/ml. Solutions of arginase I and II are prepared in 100 mM sodium phosphate buffer, pH 7.4 containing 1 mg/ml of OVA to give an arginase stock solution at a final concentration of 100 ng/ml.
(§3) To each well of a 96-well microtiter plate is add 40 μl of enzyme, 10 μl of an inventive compound and 10 μl of enzyme substrate (L-arginine+manganese sulfate). For wells that are used as positive controls, only the enzyme and its substrate are added, while wells used as negative controls contain only manganese sulfate.
(§4) After incubating the microtiter plate at 37° C. for 60 minutes, 150 μl of a urea reagent obtained by combining equal proportions (1:1) of reagents A and B is added to each well of the microtiter plate to stop the reaction. The urea reagent is made just before use by combining Reagent A (10 mM o-phthaldialdehyde, and 0.4% polyoxyethylene (23) lauryl ether (w/v) in 1.8 M sulfuric acid) with Reagent B (1.3 mM primaquine diphosphate, 0.4% polyoxyethylene (23) lauryl ether (w/v), 130 mM boric acid in 3.6 M sulfuric acid). After quenching the reaction mixture, the microtiter plate is allowed to stand for an additional 10 minutes at room temperature to allow color development. The inhibition of arginase is computed by measuring the optical density (OD) of the reaction mixture at 530 nm and normalizing the OD value to percent inhibition observed in the control. The normalized OD is then used to generate a dose-response curve by plotting the normalized OD values against log [concentration] and using regression analysis to compute the IC50 values.

The next assay has as its target T2, arginase II (ARG II) (Homo sapiens, UniProt P78540).
T2 sequence (P78540 23-354): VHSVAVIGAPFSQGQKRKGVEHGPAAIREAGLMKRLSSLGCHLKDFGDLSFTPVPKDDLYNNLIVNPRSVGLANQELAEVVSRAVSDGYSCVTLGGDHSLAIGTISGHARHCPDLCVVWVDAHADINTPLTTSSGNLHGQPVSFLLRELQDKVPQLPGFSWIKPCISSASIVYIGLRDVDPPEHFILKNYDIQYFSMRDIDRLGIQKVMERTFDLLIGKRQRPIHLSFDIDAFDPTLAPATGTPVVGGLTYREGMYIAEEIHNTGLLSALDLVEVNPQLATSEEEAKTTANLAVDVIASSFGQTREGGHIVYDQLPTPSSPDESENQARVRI
As to the kind of experiment: Inhibition of arginase II, spectrophotometric urea assay at 530 nm. The class given is biochemical. The note with it: Formula II compounds, Table 2-A; read-out: Potency (ARG). The procedure: as §1, §2, §3, §4

`N[C@@](CCCCB(O)O)(C(=O)O)[C@H]1CCN(c2ccc(Cl)cc2)C1` [12-A, (R)-2-amino-6-borono-2-((S)-1-(4-chlorophenyl)pyrrolidin-3-yl)hexanoic acid hydrochloride]: the pIC50 at human arginase I (ARG I) and on arginase II (ARG II) was 5.30 to 5.70 each time.

In the case of `NC(CCCCB(O)O)(C(=O)O)[C@@H]1CC(=O)N(c2ccc(Cl)cc2)C1` (stereo partly shown) [14-A, 2-amino-6-borono-2-[1-(4-chlorophenyl)-5-oxo-pyrrolidin-3-yl]-hexanoic acid hydrochloride], the pIC50 at human arginase I (ARG I) and at arginase II (ARG II) was 5.30 to 5.70 in each case.

For the molecule `N[C@@H]1CC[C@H]([C@](N)(CCCCB(O)O)C(=O)O)C1` [15-A, (R)-2-amino-2-((1S,3R)-3-aminocyclopentyl)-6-boronohexanoic acid dihydrochloride], the pIC50 on human arginase I (ARG I) and at arginase II (ARG II) was 6.60 to 10.00 throughout.

With `N[C@H]1CC[C@H]([C@](N)(CCCCB(O)O)C(=O)O)C1` [16-A, (R)-2-amino-2-((1S,3S)-3-aminocyclopentyl)-6-boronohexanoic acid dihydrochloride], the pIC50 at human arginase I (ARG I) and on arginase II (ARG II) was 6.60 to 10.00 in each case.

As for `N[C@H]1CC[C@@H]([C@@](N)(CCCCB(O)O)C(=O)O)C1` [17-A, (S)-2-amino-2-((1R,3S)-3-aminocyclopentyl)-6-boronohexanoic acid dihydrochloride], the pIC50 on human arginase I (ARG I) and on arginase II (ARG II) was 6.60 to 10.00 each time.

Turning to `NC(CCCCB(O)O)(C(=O)O)C1CNC1` (stereo not shown) [18-A, 2-amino-2-(azetidin-3-yl)-6-boronohexanoic acid dihydrochloride], the pIC50 on human arginase I (ARG I) and on arginase II (ARG II) was 5.30 to 5.70 each time.

For `NC(CCCCB(O)O)(C(=O)O)C1CNCCO1` (stereo not shown) [19-A, 2-amino-6-borono-2-(morpholin-2-yl)hexanoic acid dihydrochloride], the pIC50 at human arginase I (ARG I) and at arginase II (ARG II) was 5.30 to 5.70 in each case.

Consider `NC1CCC(C(N)(CCCCB(O)O)C(=O)O)CC1` (stereo not shown) [20-A, 2-amino-2-(4-aminocyclohexyl)-6-boronohexanoic acid dihydrochloride], for which the pIC50 at human arginase I (ARG I) and at arginase II (ARG II) was 6.00 to 6.60 throughout.

For the molecule `NC(CCCCB(O)O)(C(=O)O)C1CCN(C2CCCCC2)CC1` (stereo not shown) [23-A, 2-amino-6-borono-2-(1-cyclohexylpiperidin-4-yl)hexanoic acid dihydrochloride], the pIC50 on human arginase I (ARG I) and at arginase II (ARG II) was 6.00 to 6.60 in each case.

Regarding `NC(CCCCB(O)O)(C(=O)O)C1CCN(C2CCCC2)CC1` (stereo not shown) [24-A, 2-amino-6-borono-2-(1-cyclopentylpiperidin-4-yl)hexanoic acid dihydrochloride], the pIC50 at human arginase I (ARG I) and at arginase II (ARG II) was 6.00 to 6.60 throughout.

In the case of `CC1(C)CCC(N2CCC(C(N)(CCCCB(O)O)C(=O)O)CC2)CC1` (stereo not shown) [25-A, 2-amino-6-borono-2-[1-(4,4-dimethylcyclohexyl)piperidin-4-yl]hexanoic acid dihydrochloride], the values for the pIC50 on human arginase I (ARG I) and at arginase II (ARG II) were 6.60 to 10.00 and 6.00 to 6.60, respectively.

Take `NC(CCCCB(O)O)(C(=O)O)C1CCN(C(=O)c2ccc(Cl)cc2)CC1` (stereo not shown) [26-A, 2-amino-6-borono-2-[1-(4-chlorobenzoyl)piperidin-4-yl]hexanoic acid hydrochloride]: the pIC50 at human arginase I (ARG I) and at arginase II (ARG II) was 5.30 to 5.70 in each case.

`CC(=O)N1CCC(C(N)(CCCCB(O)O)C(=O)O)CC1` (stereo not shown) [27-A, 2-amino-6-borono-2-[1-acetylpiperidin-4-yl]hexanoic acid hydrochloride]: the pIC50 at human arginase I (ARG I) and on arginase II (ARG II) was 5.30 to 5.70 each time.

For `NC(CCCCB(O)O)(C(=O)O)C1CCN(C(=O)Cc2ccc(F)cc2)CC1` (stereo not shown) [28-A, 2-amino-6-borono-2-{1-[(4-fluorophenyl)acetyl]-piperidin-4-yl}hexanoic acid hydrochloride], the pIC50 on human arginase I (ARG I) and on arginase II (ARG II) was 5.30 to 5.70 throughout.

Regarding `NC(CCCCB(O)O)(C(=O)O)C1CCN(C(=O)Cc2ccc(Cl)cc2)CC1` (stereo not shown) [29-A, 2-amino-6-borono-2-{1-[(4-chlorophenyl)acetyl]-piperidin-4-yl}hexanoic acid hydrochloride], the figures for the pIC50 at human arginase I (ARG I) and at arginase II (ARG II) were 5.70 to 6.00 and less than 5.30, respectively.

Take `NC(CCCCB(O)O)(C(=O)O)C1CCN(C(=O)c2ccccc2)CC1` (stereo not shown) [30-A, 2-amino-6-borono-2-[1-benzoylpiperidin-4-yl]hexanoic acid hydrochloride]: the pIC50 at human arginase I (ARG I) and at arginase II (ARG II) was 5.30 to 5.70 in each case.

Consider `NC(CCCCB(O)O)(C(=O)O)C1CCN(C(=O)NCc2ccc(Cl)cc2)CC1` (stereo not shown) [31-A, 2-amino-6-borono-2-{1-[(4-chlorobenzyl)carbamoyl]-piperidin-4-yl}hexanoic acid hydrochloride], for which the pIC50 at human arginase I (ARG I) is 5.70 to 6.00; on arginase II (ARG II), 5.30 to 5.70.

As for `NC(CCCCB(O)O)(C(=O)O)C1CCN(C(=O)Nc2ccc(Cl)cc2)CC1` (stereo not shown) [32-A, 2-amino-6-borono-2-{1-[(4-chlorophenyl)-carbamoyl]piperidin-4-yl}hexanoic acid hydrochloride], the pIC50 on human arginase I (ARG I) and on arginase II (ARG II) was 6.00 to 6.60 in each case.

Take `NC(CCCCB(O)O)(C(=O)O)C1CCN(C(=O)NCCc2ccc(F)cc2)CC1` (stereo not shown) [33-A, 2-amino-6-borono-2-(1-{[2-(4-fluorophenyl)ethyl]-carbamoyl}piperidin-4-yl)hexanoic acid hydrochloride]: the pIC50 at human arginase I (ARG I) and on arginase II (ARG II) was 5.70 to 6.00 throughout.

As to `NC(CCCCB(O)O)(C(=O)O)C1CCN(C(=S)Nc2ccc(Cl)cc2)CC1` (stereo not shown) [34-A, 2-amino-6-borono-2-(1-{[(4-chlorophenyl)amino]carbonothioyl}piperidin-4-yl)hexanoic acid hydrochloride], the pIC50 at human arginase I (ARG I) and at arginase II (ARG II) was 6.00 to 6.60 throughout.

As to `NC(CCCCB(O)O)(C(=O)O)C1CCN(C(=S)Nc2ccc(Cl)cc2)C1` [35-A, 2-amino-6-borono-2-((S)-1-(4-chlorophenylcarbamothioyl)-pyrrolidin-3-yl)hexanoic acid hydrochloride], the pIC50 on human arginase I (ARG I) and at arginase II (ARG II) was 6.00 to 6.60 throughout.

On to `NC(CCCCB(O)O)(C(=O)O)C1CCN(C(=O)Nc2ccc(Cl)cc2)C1` [36-A, 2-amino-6-borono-2-((S)-1-(4-chlorophenylcarbamoyl)pyrrolidin-3-yl)hexanoic acid hydrochloride], for which the pIC50 was 6.00 to 6.60 on human arginase I (ARG I) and 5.30 to 5.70 at arginase II (ARG II).

Regarding `Cc1ccc(CN2CC[C@@H](C(N)(CCCCB(O)O)C(=O)O)C2)cc1` (stereo partly drawn) [Example 39-A, 2-Amino-6-borono-2-((R)-1-(4-methylbenzyl)pyrrolidin-3-yl)hexanoic acid dihydrochloride], the pIC50 on human arginase I (ARG I) and at arginase II (ARG II) was 6.00 to 6.60 in each case.

Regarding `NC(CCCCB(O)O)(C(=O)O)[C@@H]1CCN(S(=O)(=O)c2ccccc2[N+](=O)[O-])C1` (stereo partly drawn) [Example 40-A, 2-amino-6-borono-2-((R)-1-(2-nitrophenylsulfonyl)pyrrolidin-3-yl)hexanoic acid], the pIC50 at human arginase I (ARG I) and at arginase II (ARG II) was 6.00 to 6.60 each time.

As for `NC(CCCCB(O)O)(C(=O)O)C1CCN(CCc2ccccc2)CC1` (stereo not shown) [Example 41-A, 2-amino-6-borono-2-(1-phenethylpiperidin-4-yl)hexanoic acid], the pIC50 at human arginase I (ARG I) was 6.00 to 6.60; on arginase II (ARG II) it was 6.60 to 10.00.

As for `NC(CCCCB(O)O)(C(=O)O)C1CCN(C(=O)Nc2ccc(Cl)c(Cl)c2)CC1` (stereo not shown) [Example 42-A, 2-amino-6-borono-2-(1-(3,4-dichlorophenylcarbamoyl)piperidin-4-yl)hexanoic acid], the pIC50 on human arginase I (ARG I) was 6.00 to 6.60; on arginase II (ARG II), 5.70 to 6.00.
